Data as given in patent US5519024A, “Quinolonecarboxylic acid derivatives and their use” (Takeda Chemical Industries, Ltd., priority 1993, dated 1996).
Where a name gives a salt, the structure may show the parent alone. Read-outs that look alike come from different tables or passages of the source.

Biological target: T1, GPIIb/IIIa (Homo sapiens, UniProt P05106+P08514)
T1 construct: Purification of GPIIb/IIIa from HEL cells; endogenous in cells; host or cells: HEL cells (HEL 92.1.7, ATCC TIB180); endogenous complex solubilized with Triton X-100 and purified in house
T1 sequence (P08514 32-887 limits assumed): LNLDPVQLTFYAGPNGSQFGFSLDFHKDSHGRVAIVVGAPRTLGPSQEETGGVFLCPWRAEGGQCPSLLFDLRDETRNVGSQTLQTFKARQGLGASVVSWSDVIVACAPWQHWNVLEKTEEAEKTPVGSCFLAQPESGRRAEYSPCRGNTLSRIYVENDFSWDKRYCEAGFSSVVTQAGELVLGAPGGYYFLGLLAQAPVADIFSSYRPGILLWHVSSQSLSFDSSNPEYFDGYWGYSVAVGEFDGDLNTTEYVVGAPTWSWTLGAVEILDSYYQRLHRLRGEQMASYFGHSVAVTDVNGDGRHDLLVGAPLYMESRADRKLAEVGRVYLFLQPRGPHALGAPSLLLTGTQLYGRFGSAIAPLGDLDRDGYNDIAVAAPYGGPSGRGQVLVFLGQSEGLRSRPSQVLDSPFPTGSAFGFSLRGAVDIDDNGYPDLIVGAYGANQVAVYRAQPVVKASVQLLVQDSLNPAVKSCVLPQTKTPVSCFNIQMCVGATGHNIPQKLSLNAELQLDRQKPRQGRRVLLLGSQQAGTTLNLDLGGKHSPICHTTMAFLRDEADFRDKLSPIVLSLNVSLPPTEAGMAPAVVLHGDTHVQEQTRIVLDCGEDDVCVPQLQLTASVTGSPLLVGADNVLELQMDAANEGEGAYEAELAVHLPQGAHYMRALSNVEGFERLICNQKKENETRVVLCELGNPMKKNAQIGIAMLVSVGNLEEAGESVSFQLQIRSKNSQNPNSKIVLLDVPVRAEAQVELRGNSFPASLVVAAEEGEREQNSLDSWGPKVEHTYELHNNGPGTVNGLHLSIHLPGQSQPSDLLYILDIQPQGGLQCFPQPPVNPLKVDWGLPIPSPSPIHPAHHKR
T1 sequence (P08514 891-1039 limits assumed): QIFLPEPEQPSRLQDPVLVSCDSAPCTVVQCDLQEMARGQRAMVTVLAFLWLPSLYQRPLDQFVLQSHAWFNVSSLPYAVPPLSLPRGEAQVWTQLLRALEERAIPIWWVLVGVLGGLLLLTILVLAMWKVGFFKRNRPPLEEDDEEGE
T1 sequence (P05106 27-788): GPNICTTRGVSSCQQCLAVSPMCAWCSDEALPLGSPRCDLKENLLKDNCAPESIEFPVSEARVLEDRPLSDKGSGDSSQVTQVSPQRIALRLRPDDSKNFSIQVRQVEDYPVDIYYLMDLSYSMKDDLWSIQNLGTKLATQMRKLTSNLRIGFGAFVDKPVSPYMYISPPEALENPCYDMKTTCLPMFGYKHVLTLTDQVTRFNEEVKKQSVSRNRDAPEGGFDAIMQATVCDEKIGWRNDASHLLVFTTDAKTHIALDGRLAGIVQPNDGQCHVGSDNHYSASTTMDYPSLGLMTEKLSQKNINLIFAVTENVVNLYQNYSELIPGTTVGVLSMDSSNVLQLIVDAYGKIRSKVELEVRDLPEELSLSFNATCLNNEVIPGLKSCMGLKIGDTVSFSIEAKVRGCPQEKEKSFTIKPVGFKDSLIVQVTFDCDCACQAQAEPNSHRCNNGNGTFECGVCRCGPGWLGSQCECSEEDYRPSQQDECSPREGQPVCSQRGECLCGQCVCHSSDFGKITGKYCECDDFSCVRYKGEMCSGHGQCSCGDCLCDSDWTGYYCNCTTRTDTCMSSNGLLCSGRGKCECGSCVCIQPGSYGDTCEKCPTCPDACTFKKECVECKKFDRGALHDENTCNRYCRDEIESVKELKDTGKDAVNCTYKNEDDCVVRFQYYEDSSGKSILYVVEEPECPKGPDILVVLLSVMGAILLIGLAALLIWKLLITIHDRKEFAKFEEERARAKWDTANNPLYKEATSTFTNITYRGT
Experiment: Inhibitory activity against binding of GPIIb/IIIa and fibrinogen
Conditions: for inhibition at 10 µM / inhibition at 1 µM: read-out: GPIIb/IIIa Fibrinogen Binding Inhibitory Activity; for GPIIb/IIIa Fibrinogen Binding Inhibitory Activity: Table 1
Experimental: Test Example 1: Inhibitory activity against binding of GPIIb/IIIa and fibrinogen
(1) Cultivation of human erythroleukemia-derived cell line (hereinafter referred to as HEL cells)
HEL cells (HEl92.1.7; ATCC No. TIB180) were purchased from ATCC (Rockville, Md., U.S.A.). The medium was RPMI medium (GIBCO Laboratories, Grand Island, N..Y, U.S.A.) containing 40 mM N-2-hydroxyethylpiperazine-N'-2-ethanesulfonic acid (hereinafter referred to as HEPES) (pH 7.0), 0.2% NaHCO3, 100 μg/ml kanamycin and 10% FCS. The cells were cultured in the presence of 5% CO2 at 37° C., with the medium replaced with a fresh medium to obtain a 4- to 5-fold dilution at intervals of 3 to 4 days.
(2) Purification of GPIIb/IIIa from HEL cells
GPIIb/IIIa was purified by a modification of the method of L. A. Fitzgerald et al. [J. Biol. Chem., 262, 3936 (1987)] as follows: All purification was conducted at room temperature, unless otherwise stated. At 7 days of cultivation, cells were collected from the HEL cell culture broth (cell suspension) by centrifugation (1,000 ×g, 10 minutes, 4° C.). After washing with 20 mM Tris-HCl (pH 7.5) containing 1 mM EDTA and 150 mM NaCl, the cells were suspended in a solubilizing buffer (20 mM Tris-HCl, 150 mM NaCl, 1% Triton X-100, 1 mM MgCl2, 1 mM CaCl2, 0.1 mM (p-amidinophenyl)methanesulfonyl fluoride (hereinafter referred to as APMSF), 10 nM leupeptin, 0.02% NaN3, pH 7.4), followed by gentle stirring at 4° C. for 30 minutes, to solubilize the GPIIb/IIIa. The suspension was centrifuged (100,000 ×g, 1 hour) at 4° C., and the cell debris removed, to yield a cell extract. The cell extract was passed through a Heparin-Sepharose CL-6B column (Pharmacia LKB) and a DEAE-Toyopearl 650M column (Tosoh), both previously equilibrated with a column buffer (20 mM Tris-HCl, 150 mM NaCl, 0.1% Triton X-100, 1 mM MgCl2, 1 mM CaCl2, 0.1 mM APMSF, 1 nM leupeptin, 0.05% NaN3, pH 7.4). The effluent was applied to a ConA-Sepharose column (Pharmacia LKB), previously equilibrated with the same column buffer as above, to adsorb the GPIIb/IIIa, followed by elution with the same column buffer but containing 0.5M methyl α-D-mannopyranoside. The eluted fraction was concentrated at 4° C. using an ultrafiltration apparatus (Amicon Corporation the fraction's molecular weight of 10,000), after which it was subjected to gel filtration through a Sephacryl S-300 column (Pharmacia LKB), previously equilibrated with the same column buffer, to yield a purified standard sample.
(3) Biotinization of human fibrinogen
Conducted by the method of I. F. Charo [I. F. Charo et al., J. Biol. Chem., 266, 1415 (1991)].
Human fibrinogen (Kabi Vitrum AB) was dissolved in PBS to 5 mg/ml and then dialyzed at 4° C. against 0.1M carbonate buffer (pH 8.2) containing 0.1M NaCl. After dialysis, insoluble substances were removed by centrifugation (100,000 ×g, 30 minutes), and the dialyzate was diluted to 1 mg/ml with the same buffer. To this dilution, sulfo-N-hydroxysuccinimidebiotin (Pierce Chemical Co.) was added to a final concentration of 0.2 mg/ml, followed by gentle mixing at room temperature for 30 minutes, to biotinize the fibrinogen. After completion of the reaction, the mixture was dialyzed against 0.05M Tris-HCl buffer (pH 7.4) containing 0.1M NaCl and 0.05% NaN3.
(4) Determination of inhibitory activity against fibrinogen binding
Conducted by a modification of the method of I. F. Charo [I. F. Charo et al., J. Biol. Chem., 266, 1415 (1991)] as follows: The purified GPIIb/IIIa was diluted to 1 μg/ml with buffer A (20 mM Tris-HCl, 150 mM NaCl, 1 mM CaCl2, 0.02% NaN3, pH 7.4). A 100 μl aliquot of this dilution was dispensed to a 96-well microplate (Maxisorp, produced by Nunc), and the plate kept standing at 4° C., to adsorb the GPIIb/IIIa to the microplate. Next, 150 μl of buffer B (35 mg/ml BSA, 50 mM Tris-HCl, 100 mM NaCl, 2 mM CaCl2, 0.02% NaN3, pH 7.4) was added, followed by 2 hours of blocking at 30° C. […]

COc1ccccc1Cn1cc(C(=O)O)c(=O)c2cc(F)c(N3CCNCC3)c(F)c21 [Compound 76, 6,8-Difluoro-1-(2-methoxybenzyl)-7-(1-piperazinyl)-1,4-dihydro-4-oxoquinoline-3-carboxylic acid]
inhibition at 10 µM (Table 2, 10^-5 M): 100% | inhibition at 1 µM (Table 2, 10^-6 M): 83.1%

NC(=O)c1ccc(-n2cc(C(=O)O)c(=O)c3cc(F)c(N4CCNCC4)c(F)c32)cc1 [Compound 49]
inhibition at 1 µM (Table 2, 10^-6 M): 30.5%

O=C(O)c1cn(Cc2nccs2)c2c(F)c(N3CCCNCC3)c(F)cc2c1=O [Compound 61]
inhibition at 10 µM (Table 2, 10^-5 M): 100% | inhibition at 1 µM (Table 2, 10^-6 M): 97.1%

O=C(O)c1cn(C2CC2)c2cc(N3CCNCC3)c(F)cc2c1=O [Cyprofloxacin, reference compound]
inhibition at 1 µM: 47.6% | inhibition at 10 µM: 85.5%

CN1CCN(c2c(F)cc3c(=O)c(C(=O)O)cn(C4CN(C)C4)c3c2F)CC1 [Compound 16]
inhibition at 10 µM (Table 2, 10^-5 M): 60.4% | inhibition at 1 µM (Table 2, 10^-6 M): 43.2%

O=C(O)CCn1cc(C(=O)O)c(=O)c2cc(F)c(N3CCNCC3)c(F)c21 [Compound 14]
inhibition at 1 µM (Table 2, 10^-6 M): 56.1%

CCn1cc(C(=O)O)c(=O)c2cc(F)c(N3CCN4CCCC4C3)c(F)c21 (stereo not shown) [Compound 6]
inhibition at 10 µM (Table 2, 10^-5 M): 83.3% | inhibition at 1 µM (Table 2, 10^-6 M): 39.3%

CCn1cc(C(=O)O)c(=O)c2cc(F)c(N3CCN(c4ccncc4)CC3)cc21 [Compound 3, 1-Ethyl-6-fluoro-7-[4-(4-pyridyl)piperazin-1-yl]-1,4-dihydro-4-oxoquinoline-3-carboxylic acid]
inhibition at 10 µM (Table 2, 10^-5 M): 82.2% | inhibition at 1 µM (Table 2, 10^-6 M): 57.1%

O=C(O)c1cn(Cc2nccs2)c2c(F)c(N3CCC(C4CCNCC4)CC3)c(F)cc2c1=O [Compound 68]
inhibition at 10 µM (Table 2, 10^-5 M): 100% | inhibition at 1 µM (Table 2, 10^-6 M): 100%

O=C(O)c1cn(Cc2nccs2)c2c(F)c(N3CCN(CCO)CC3)c(F)cc2c1=O [Compound 71]
inhibition at 10 µM (Table 2, 10^-5 M): 100% | inhibition at 1 µM (Table 2, 10^-6 M): 100%

O=C(O)c1cn(Cc2nccs2)c2c(F)c(N3CCN(c4cc(N5CCCC5)nc(N5CCCC5)n4)CC3)c(F)cc2c1=O [Compound 67]
inhibition at 10 µM (Table 2, 10^-5 M): 58.6% | inhibition at 1 µM (Table 2, 10^-6 M): 76.4%

CCNCc1cn2c(n1)CN(c1c(F)cc3c(=O)c(C(=O)O)cn(C4CC4)c3c1F)CC2 [Compound 27]
inhibition at 10 µM (Table 2, 10^-5 M): 78.4% | inhibition at 1 µM (Table 2, 10^-6 M): 42.6%

Nc1c(F)c(N2CCN3CCC[C@@H]3C2)c(F)c2c1c(=O)c(C(=O)O)cn2C1CC1 [Compound 44]
inhibition at 10 µM (Table 2, 10^-5 M): 61.6% | inhibition at 1 µM (Table 2, 10^-6 M): 33.4%

CC(=O)NCCN1CCN(c2c(F)cc3c(=O)c(C(=O)O)cn(Cc4nccs4)c3c2F)CC1 [Compound 69]
inhibition at 10 µM (Table 2, 10^-5 M): 100% | inhibition at 1 µM (Table 2, 10^-6 M): 92.2%

O=C(O)c1cn(C2CC2)c2c(F)c(N3CCn4ccnc4C3)c(F)cc2c1=O [Compound 18]
inhibition at 10 µM (Table 2, 10^-5 M): 42.6% | inhibition at 1 µM (Table 2, 10^-6 M): 30.5%

O=C(O)c1cn(C2CC2)c2c(F)c(N3CCn4cc(CN5CCOCC5)nc4C3)c(F)cc2c1=O [Compound 30]
inhibition at 10 µM (Table 2, 10^-5 M): 54.8% | inhibition at 1 µM (Table 2, 10^-6 M): 24.2%

Romechloxaxin [reference compound]
GPIIb/IIIa Fibrinogen Binding Inhibitory Activity (1 × 10^-5 M): 59.6% | GPIIb/IIIa Fibrinogen Binding Inhibitory Activity (1 × 10^-6 M): 22.8%

NCCN1CCN(c2c(F)cc3c(=O)c(C(=O)O)cn(Cc4nccs4)c3c2F)CC1 [Compound 70]
inhibition at 10 µM (Table 2, 10^-5 M): 100% | inhibition at 1 µM (Table 2, 10^-6 M): 95.9%

CN1CCN(c2c(F)cc3c(=O)c(C(=O)O)cn(Cc4nccs4)c3c2F)CC1 [Compound 50, 6,8-Difluoro-7-(4-methylpiperazin-1-yl)-1-(thiazol-2-yl)methyl-1,4-dihydro-4-oxoquinoline-3-carboxylic acid hydrochloride]
inhibition at 10 µM (Table 2, 10^-5 M): 99.8% | inhibition at 1 µM (Table 2, 10^-6 M): 92.3%

CCNCC1CCN(c2c(F)cc3c(=O)c(C(=O)O)cn(C4CC4)c3c2F)C1 (stereo not shown) [Compound 23]
inhibition at 10 µM (Table 2, 10^-5 M): 72.3% | inhibition at 1 µM (Table 2, 10^-6 M): 36.2%

NCc1nc2c(s1)CCN(c1c(F)cc3c(=O)c(C(=O)O)cn(C4CC4)c3c1F)C2 [Compound 48]
inhibition at 1 µM (Table 2, 10^-6 M): 57.7%

CN1CCN(c2c(F)cc3c(=O)c(C(=O)O)cn4c3c2N(C)CC4)CC1 [Compound 53, 9-Fluoro-1-methyl-10-(4-methylpiperazin-1-yl) 7-oxo-2,3-dihydro-1H,7H-pyrido[1,2,3-de]quinoxaline-6-carboxylic acid]
inhibition at 10 µM (Table 2, 10^-5 M): 89.5% | inhibition at 1 µM (Table 2, 10^-6 M): 47.6%

NC1CCCN(c2c(F)cc3c(=O)c(C(=O)O)cn(C4CC4)c3c2F)C1 (stereo not shown) [Compound 38]
inhibition at 10 µM (Table 2, 10^-5 M): 50.8% | inhibition at 1 µM (Table 2, 10^-6 M): 31.9%

CCn1cc(C(=O)O)c(=O)c2cc(F)c(N3CCN(Cc4ccccn4)CC3)cc21 [Compound 4]
inhibition at 10 µM (Table 2, 10^-5 M): 70.9% | inhibition at 1 µM (Table 2, 10^-6 M): 33%

CN(C)CCn1cc(C(=O)O)c(=O)c2cc(F)c(N3CCNCC3)cc21 [Compound 12]
inhibition at 10 µM (Table 2, 10^-5 M): 79.1% | inhibition at 1 µM (Table 2, 10^-6 M): 65.1%

O=C(O)c1cn(-c2ccncc2)c2c(F)c(N3CCNCC3)c(F)cc2c1=O [Compound 54]
inhibition at 10 µM (Table 2, 10^-5 M): 50.1% | inhibition at 1 µM (Table 2, 10^-6 M): 21%

CN1CCN(C(=O)CCCNc2c(F)cc3c(=O)c(C(=O)O)cn(C4CC4)c3c2F)CC1 [Compound 42]
inhibition at 10 µM (Table 2, 10^-5 M): 67.3% | inhibition at 1 µM (Table 2, 10^-6 M): 38.6%

NC(=O)CCCNc1c(F)cc2c(=O)c(C(=O)O)cn(C3CC3)c2c1F [Compound 41]
inhibition at 10 µM (Table 2, 10^-5 M): 58.8% | inhibition at 1 µM (Table 2, 10^-6 M): 17.9%

O=C(O)c1cn(C2CC2)c2c(F)c(N3CCN4CCC[C@@H]4C3)c(F)cc2c1=O [Compound 31]
inhibition at 10 µM (Table 2, 10^-5 M): 73% | inhibition at 1 µM (Table 2, 10^-6 M): 39.3%

NC(=O)OCCn1cc(C(=O)O)c(=O)c2cc(F)c(N3CCNCC3)c(F)c21 [Compound 11, 1-(2-Carbamoyloxyethyl)-6,8-difluoro-7-(1-piperazinyl)1,4-dihydro-4-oxoquinoline-3-carboxylic acid]
inhibition at 10 µM (Table 2, 10^-5 M): 96.8% | inhibition at 1 µM (Table 2, 10^-6 M): 84.3%

CN1CCN(C(=O)OC2CCN(c3c(F)cc4c(=O)c(C(=O)O)cn(Cc5nccs5)c4c3F)C2)CC1 (stereo not shown) [Compound 63]
inhibition at 10 µM (Table 2, 10^-5 M): 100% | inhibition at 1 µM (Table 2, 10^-6 M): 100%

O=C(O)c1cn(C2CC2)c2c(F)c(N3CCc4ccccc4C3)c(F)cc2c1=O [Compound 34]
inhibition at 10 µM (Table 2, 10^-5 M): 77% | inhibition at 1 µM (Table 2, 10^-6 M): 49.4%
